According to patent publication US20050038072A1, “Nitrogeneous cyclic ketone derivative, process for producing the same, and use” (Takeda Chemical Industries, Ltd., priority 2001, published 2005):
Where a name gives a salt, the structure may show the parent alone.

How the values were obtained:
substance P receptor = biological target: T1, substance P receptor (Homo sapiens, UniProt P25103); experiment: Radioligand receptor binding inhibiting activity (binding inhibitory activity using receptor from human lymphoblast cell (IM-9)); conditions: radioligand [125I]-labeled substance P (125I-BHSP), 25° C., 30 minutes
T1 construct: endogenous in cells; host or cells: IM-9 human lymphoblast cells (membrane preparation)
Procedure: Radioligand receptor binding inhibiting activity (binding inhibitory activity using receptor from human lymphoblast cell (IM-9))
A modified method by M. A. Cascieri et al (Molecular Pharmacology, Vol. 42, p. 458 (1992)) was employed. The receptor was prepared from a human lymphoblast cell (IM-9). After inoculation of IM-9 cells (2×10^5 cells/ml), the cells were cultured for 3 days (1L), and then the culture was centrifuged at 500×G for 5 minutes to obtain a cell pellet. The resultant pellet was washed once with a phosphate buffer (FLOW LABORATORIES, CAT. No. 28-103-05), fractured in 30 ml of a 50 mM Tris-HCl buffer (pH 7.4) containing 120 mM sodium chloride, 5 mM potassium chloride, 2 μg/ml chymostatin, 40 μg/ml bacitracin, 5 μg/ml phosphoramidone, 0.5 mM phenylmethylsulfonyl fluoride and 1 mM ethylenediamine tetraacetic acid using a polytron homogenizer (Kinematika, Germany), and centrifuged at 40,000×G for 20 minutes. The separated material was washed twice with 30 ml of the buffer solution described above and stored frozen as a receptor standard preparation (−80° C.)
This preparation was suspended in a reaction buffer [50 mM Tris-HCl buffer (pH 7.4), 0.02% bovine serum albumin, 1 mM phenylmethylsulfonyl fluoride, 2 μg/ml of chymostatin, 40 μg/ml bacitracin, 3 mM manganese chloride] at a protein concentration of 0.5 mg/ml and a 100 μl portion was used for the reaction. The sample, 125I-BHSP (0.46 KBq) was also added and the mixture was reacted in a 0.2 ml reaction buffer at 25° C. for 30 minutes. A non-specific binding level was measured by adding substance P at 2×10^−6 M.
After the reaction, a Cell Harvester [290PHD manufactured by Cambridge Technology, Inc, USA] was used to conduct a rapid filtration over a glass filter [GF/B manufactured by Whatman, USA] whereby terminating the reaction, followed by washing three times with 250 μl of a 50 mM Tris-HCl buffer solution (pH 7.4) containing 0.02% bovine serum albumin. Then, the radioactivity remaining on the filter was counted with a gamma counter. The filter was used after immersing in a 0.1% polyethylene imine over a whole day and night followed by drying in air.
The radioligand means [^125I]-labeled substance P.

T1 sequence (P25103 whole entry): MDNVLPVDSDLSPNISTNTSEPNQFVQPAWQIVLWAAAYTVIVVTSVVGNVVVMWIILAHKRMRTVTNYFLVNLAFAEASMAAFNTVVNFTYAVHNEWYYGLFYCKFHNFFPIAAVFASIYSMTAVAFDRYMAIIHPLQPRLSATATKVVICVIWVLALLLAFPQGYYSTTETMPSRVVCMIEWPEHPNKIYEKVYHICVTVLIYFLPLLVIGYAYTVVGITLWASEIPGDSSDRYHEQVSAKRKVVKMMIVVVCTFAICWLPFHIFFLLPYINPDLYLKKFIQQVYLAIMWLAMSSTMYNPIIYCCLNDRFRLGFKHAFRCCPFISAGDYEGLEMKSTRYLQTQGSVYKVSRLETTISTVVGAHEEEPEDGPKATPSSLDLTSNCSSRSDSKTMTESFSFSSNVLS

| SMILES | melting point | IC50 (substance P receptor) [nM] |
| --- | --- | --- |
| COc1ccc([N+](=O)[O-])cc1CN1CCC(=O)C(C(c2ccccc2)c2ccccc2)C1 (centres unmarked) [Example 176, 3-Benzhydryl-1-(2-methoxy-5-nitrobenzyl)-4-piperidinone] | 119 to 120 °C |  |
| O=C1CN(Cc2ccccc2)CCC1C(c1ccc(F)cc1)c1ccc(F)cc1 (centres unmarked) (as salt: hydrochloride) [Example 195, 1-Benzyl-4-[bis(4-fluorophenyl)methyl]-3-piperidinone] | 177.5 to 179 °C |  |
| CCOc1ccc([N+](=O)[O-])cc1CN1CCC(=O)C(C(c2ccccc2)c2ccccc2)C1 (centres unmarked) [Example 185, 3-Benzhydryl-1-(2-ethoxy-5-nitrobenzyl)-4-piperidinone] |  | 0.29 |
| CCOc1ccccc1CN1CCC(=O)C(C(c2ccccc2)c2ccccc2)C1 (centres unmarked) [Example 99, 3-Benzhydryl-1-(2-ethoxybenzyl)-4-piperidinone] |  | 0.44 |
| COc1ccc(Br)cc1CN1CCC(=O)C(C(c2ccc(F)cc2)c2ccc(F)cc2)C1 (single isomer, unassigned; (-)) [Example 163, (−)-3-[Bis(4-fluorophenyl)methyl]-1-(5-bromo-2-methoxybenzyl)-4-piperidinone] |  | 0.62 |
| COc1ccc(OC(F)(F)F)cc1CN1CCC(=O)C(C(c2ccccc2)c2ccccc2)C1 (centres unmarked) (as salt: hydrochloride) [Example 168, 3-Benzhydryl-1-[2-methoxy-5-(trifluoromethoxy)benzyl]-4-piperidinone] | 174 to 175 °C |  |
| COc1ccc(NS(C)(=O)=O)cc1CN1CCC(=O)C(C(c2ccccc2)c2ccccc2)C1 (centres unmarked) [Example 183, N-[3-[(3-Benzhydryl-4-oxo-1-piperidinyl)methyl]-4-methoxyphenyl]methanesulfonamide] | 132 to 135 °C | 0.26 |
| O=C1CCNCC1C(c1ccccc1)c1ccccc1F (centres unmarked) (as salt: hydrochloride) | 204 to 205 °C |  |
| COc1c(CN2CCC(=O)C(C(c3ccccc3)c3ccccc3)C2)cc(C(C)(C)C)cc1C(C)(C)C (centres unmarked) [Example 161, 3-Benzhydryl-1-(3,5-di-tert-butyl-2-methoxybenzyl)-4-piperidinone] | 136 to 138 °C |  |
| CCOc1cccc(OC)c1CN1CCC(=O)C(C(c2ccccc2)c2ccccc2)C1 (centres unmarked) [Example 170, 3-Benzhydryl-1-(2-ethoxy-6-methoxybenzyl)-4-piperidinone] | 137 to 138 °C |  |
| CCOc1ccccc1CN1CCC(=O)C(C(c2ccc(F)cc2)c2ccc(F)cc2)C1 (centres unmarked) [Example 98, 3-[Bis(4-fluorophenyl)methyl]-1-(2-ethoxybenzyl)-4-piperidinone] |  | 0.85 |
| O=C1CCN(Cc2ccccc2)CC1C(c1ccccc1)c1ccccc1F (centres unmarked) (as salt: hydrochloride) [Example 157, 1-Benzyl-3-[(2-fluorophenyl)(phenyl)methyl]-4-piperidinone] | 214 to 215 °C |  |
| COc1ccc(N(S(C)(=O)=O)S(C)(=O)=O)cc1CN1CCC(=O)C(C(c2ccccc2)c2ccccc2)C1 (centres unmarked) [Example 178, N-[3-[(3-Benzhydryl-4-oxo-1-piperidinyl)methyl]-4-methoxyphenyl]-N-(methylsulfonyl)methanesulfonamide] | 132 to 135 °C |  |
| O=C1CCN(Cc2cc([N+](=O)[O-])ccc2O)CC1C(c1ccccc1)c1ccccc1 (centres unmarked) [Example 184, 3-Benzhydryl-1-(2-hydroxy-5-nitrobenzyl)-4-piperidinone] | 177 to 178 °C |  |
| O=C1CCN(Cc2ccccc2)CC1C(c1ccc(Cl)cc1)c1ccccc1Cl (centres unmarked) (as salt: hydrochloride) [Example 158, 1-Benzyl-3-[(2-chlorophenyl)(4-chlorophenyl)methyl]-4-piperidinone] | 190 to 191 °C |  |
| O=C1CNCCC1C1c2ccccc2CCc2ccccc21 (centres unmarked) (as salt: hydrochloride) [Example 198, 4-(10,11-Dihydro-5H-dibenzo[a,d][7]annulen-5-yl)-3-piperidinone] | 196 to 198 °C (dec.) |  |
| COc1ccc(C(C)C)cc1CN1CCC(=O)C(C(c2ccccc2)c2ccccc2)C1 (centres unmarked) [Example 175, 3-Benzhydryl-1-(5-isopropyl-2-methoxybenzyl)-4-piperidinone] |  | 0.42 |
| COc1ccc(OC(F)(F)F)cc1CN1CCC(=O)C(C(c2ccccc2)c2ccccc2)C1 (centres unmarked) [Example 168, 3-Benzhydryl-1-[2-methoxy-5-(trifluoromethoxy)benzyl]-4-piperidinone] |  | 0.34 |
| COc1ccc2ccccc2c1CN1CCC(=O)C(C(c2ccc(F)cc2)c2ccc(F)cc2)C1 (centres unmarked) [Example 148, 3-[Bis(4-fluorophenyl)methyl]-1-[(2-methoxy-1-naphthyl)methyl]-4-piperidinone] | 125 to 126 °C |  |
